Test results: the NIST ThermoML archive (doi:10.1021/je900596d)

Details: Liquid; for mass density: Vibrating tube method; for vapor or sublimation pressure: Closed cell (Static) method

FC(F)=C(F)C(F)(F)F [hexafluoropropene]
Details	mass density [kg/m3]
263.49 K, 9976.6 kPa	1506.02
283.17 K, 467.7 kPa	1382.09
283.17 K, 472.9 kPa	1382.09
283.17 K, 473.5 kPa	1382.21
283.17 K, 478.6 kPa	1382.26
283.17 K, 483 kPa	1382.29
283.17 K, 491.9 kPa	1382.32
283.17 K, 493.1 kPa	1382.39
283.17 K, 504.9 kPa	1382.43
283.17 K, 526.8 kPa	1382.57
283.17 K, 533.6 kPa	1382.61
283.17 K, 540.4 kPa	1382.7
283.17 K, 548.7 kPa	1382.78
283.17 K, 574 kPa	1382.98
283.17 K, 583 kPa	1382.99
283.17 K, 602 kPa	1383.21
283.17 K, 637 kPa	1383.38
283.17 K, 662.9 kPa	1383.6
283.17 K, 691.4 kPa	1383.74
283.17 K, 716 kPa	1383.92
283.17 K, 731.4 kPa	1384.12
283.17 K, 751.9 kPa	1384.27
283.17 K, 766.8 kPa	1384.29
283.17 K, 790.1 kPa	1384.57
283.17 K, 833.3 kPa	1384.9
283.17 K, 856.3 kPa	1384.98
283.17 K, 882.3 kPa	1385.18
283.17 K, 902.7 kPa	1385.3
283.17 K, 924.8 kPa	1385.58
283.17 K, 945.6 kPa	1385.66
283.17 K, 965.5 kPa	1385.81
283.17 K, 988.4 kPa	1386.02
283.17 K, 1017 kPa	1386.11
283.17 K, 1047.4 kPa	1386.36
283.17 K, 1072.3 kPa	1386.5
283.17 K, 1098.6 kPa	1386.88
283.17 K, 1125.8 kPa	1386.96
283.17 K, 1165.1 kPa	1387.2
283.17 K, 1199.3 kPa	1387.58
283.17 K, 1251 kPa	1387.98
283.17 K, 1286 kPa	1388.12
283.17 K, 1320.8 kPa	1388.36
283.17 K, 1354.8 kPa	1388.62
283.17 K, 1394.7 kPa	1388.89
283.17 K, 1427.8 kPa	1389.18
283.17 K, 1463.5 kPa	1389.43
283.17 K, 1507.4 kPa	1389.74
283.17 K, 1549.2 kPa	1389.92
283.17 K, 1591 kPa	1390.31
283.17 K, 1634.6 kPa	1390.61
283.17 K, 1720.9 kPa	1391.22
283.17 K, 1765.5 kPa	1391.52
283.17 K, 1806 kPa	1391.83
283.17 K, 1849 kPa	1391.99
283.17 K, 1895 kPa	1392.44
283.17 K, 1935.4 kPa	1392.64
283.17 K, 1975.7 kPa	1392.98
283.17 K, 2022.9 kPa	1393.24
283.17 K, 2076.3 kPa	1393.62
283.17 K, 2128.3 kPa	1394
283.17 K, 2174.7 kPa	1394.46
283.17 K, 2219 kPa	1394.73
283.17 K, 2306.2 kPa	1395.23

Details	vapor or sublimation pressure [kPa]
268.24 K	272
273.24 K	326.8
278.21 K	389
278.22 K	388.6
